These are literature values, as cited in patent US20080003281A1, “Modified Release Tablet Formulations for Proton Pump Inhibitors” (ASTRAZENECA AB, priority 2004, published 2008).

This series deals with gastric acid. Particulars: 40 mg esomeprazole dose split into 20 mg bid.

Structures are written as SMILES.

As to `COc1ccc2nc([S@@+]([O-])Cc3ncc(C)c(OC)c3C)[nH]c2c1` [esomeprazole, (−)-enantiomer of omeprazole], the “nocturnal gastric acid suppression” value is on record as “significantly improved”.
